{
  "source": "patent US10722491B2",
  "about": "“Phenol compound and combination of same with a benzodiazepine fused to 1,4-dihydropyridine for treating diseases of the central nervous and vascular systems” (UNIVERSIDAD DE LA HABANA, priority 2016, dated 2020)",
  "key": {"[1]": {"test": "KM-34 capacity to reduce DPPH radicals", "assay_type": "biochemical", "description": "FIG. 1. Percentage reduction of DPPH (100 μM) by KM-34 (5-400 μM) was determined by changing in the absorbance at 550 nm from a target containing only DPPH and vehicle (zero concentration of KM −34 or AA), after 30 minutes of reaction. Values are expressed as the mean ± SD (n=3). *P<0.05 with respect to the vehicle.\nOne of the most commonly used methods to estimate antioxidant activity is to evaluate the ability of different compounds to reduce DPPH radicals, which can be determined spectrophotometrically (Brand-Williams et al., 1995). […] Electron delocalization causes the intense violet coloration of the DPPH radical form when it is prepared in ethanol solution (Molyneux et al., 2004).\nThe IC 50 value obtained for KM was approximately 2.4 times lower than that obtained for ascorbic acid (AA) used as the reference compound."}, "[2]": {"test": "Spectrophotometric evidence of interactions between KM-34 and Fe2+", "assay_type": "physicochemical", "details": "100 μM KM-34; FeCl2 50, 100 and 200 μM; pH 7.4", "description": "FIG. 4. Maximum absorption data on UV-VIS (200-500 nm) of the 100 μM KM-34 in a mixture of 10 mM phosphate buffer (KH2PO4/ KOH) pH 7.4 and absolute ethanol 14:1 (v:v) and The absorbance in the presence of FeCl2 (50, 100 and 200 μM) dissolved in 10mM HCL.\nIn order to verify the existence of possible interactions between KM-34 and Fe2+ (through modifications in their spectra), the following results were obtained:\nThis could indicate possible interactions between Fe2+ and KM-34 where the ion is stabilized at Fe3+ by unsaturated ligands due to the stabilization of the larger crystalline field from an electron configuration d6 (Fe2+) to a d5 (Fe3+) (Hider et al., 1981, Hider et al., 1983). This justifies the response obtained in the oxidative degradation test of DR where it was observed that the KM-34 in these conditions seems to act more as a coordinator of Fe2+ than as a .OH scavenger."}, "[3]": {"system": "scopolamine cognitive deficit", "test": "Scopolamine-induced dementia, new-object recognition", "assay_type": "in vivo, rats", "details": "4 and 8 mg/kg p.o., 1 hour before scopolamine 1 mg/kg i.p.", "description": "FIG. 12. Effect of KM-34 on the recognition memory of new objects. In the new-object recognition test, KM-34 (2, 4 and 8 mg/kg, p.o) was administered 1 hour prior to scopolamine (1 mg/kg, i.p.) prior to the training phase. The results are expressed as the discrimination rate of the total time by scanning the object N with respect to F. The data are expressed as mean ± SD (n=8, per group). For statistical analysis, ANOVA and Tukey's multiple comparison test were performed. Different letters differ from each other for p<0.01.\nIn in vivo models, KM-34 was administered orally (p.o) at a rate of 4 mL/kg body weight. Doses of 2, 4 and 8 mg/kg were evaluated as acute administration 90 minutes before the start of behavioral tests. For administration the compound was suspended in carboxymethylcellulose (CMC) 0.05%. Scopolamine bromide was dissolved in 0.9% saline solution and administered intraperitoneally as a single dose (1 mg/kg, 4 mL/kg body weight) 30 minutes prior to the initiation of the behavioral tests. […]\nThis trial was conducted as proposed by Capurro et al. (Capurro et al., 2013), in an open field, on two successive days. […] The tests were video-recorded for the analysis of the exploration of the objects, defined by the time of exploration that the animal performs to each object. The discrimination rates between the F and N objects were calculated as: ID=(N−F)/(N+F)."}},
  "data": [
    {"molecule": "CC1(C)OC(=O)C(=Cc2ccc(O)c(O)c2)C(=O)O1", "note": "[KM-34, 5-[(3,4-dihydroxyphenyl)methylidene]-2,2-dimethyl-1,3-dioxane-4,6-dione]", "values": [
      {"measurement": "IC50", "setting": "[1]; DPPH 100 μM, 30 minutes of reaction, read-out: IC50, reduction of DPPH radicals", "value": 16.3, "unit": "µM"},
      {"measurement": "IC50 of KM relative to ascorbic acid (times lower)", "setting": "[1]; DPPH, AA as reference compound", "value": "approximately 2.4 times"},
      {"measurement": "Concentration giving significant (p<0.05) inhibition of the DPPH radical vs vehicle", "setting": "[1]; after 30 minutes of reaction", "value": "higher than 5 μM"},
      {"measurement": "DPPH reduction response", "setting": "[1]; at concentrations above 50 μM", "value": "reached its maximum response"},
      {"measurement": "Absorbance of KM-34 at absorption maxima 262, 345 and 472 nm in presence of Fe2+", "setting": "[2]", "value": "is modified as the concentration of the ferrous ion increases"},
      {"measurement": "Recognition memory, discrimination index of new objects", "setting": "[3]", "value": "able to revert the affectation on the learning and the memory of term recognition induced by scopolamine"}
    ]}
  ]
}
